Reference: US11078189B2, “Pharmaceutical compounds” (REVIRAL LIMITED, priority 2017, dated 2021)

Key:
[1] = Liver microsomal stability, human; format: in vitro ADME; details: pooled liver microsomes, pH 7.4; human liver microsomes 0.5 mg/mL; 3 μM compound; read-out: Liver Microsoinal Stability t1/2, human
Method: (§1) Pooled liver microsomes are purchased from a reputable commercial supplier and stored at −80° C. prior to use. Microsomes (final protein concentration 0.5 mg/mL), 0.1 M phosphate buffer pH 7.4 and test compound (final substrate concentration 3 μM; final DMSO concentration 0.25%) are pre-incubated at 37° C. prior to the addition of NADPH (final concentration 1 mM) to initiate the reaction. The final incubation volume is 50 uL. A control incubation is included for each compound tested where 0.1 M phosphate buffer pH 7.4 is added instead of NADPH (minus NADPH). Two control compounds are included with each species. All incubations are performed singularly for each test compound. Each compound is incubated for 0, 5, 15, 30 and 45 min. The control (minus NADPH) is incubated for 45 min only. The reactions are stopped by transferring 20 μL of incubate to 60 μL MeOH at the appropriate time points. The termination plates are centrifuged at 2,500 rpm for 20 min at 4° C. to precipitate the protein. Following protein precipitation, the sample supernatants are combined in cassettes of up to 4 compounds, internal standard is added and samples analysed by LC-MS/MS. From a plot of In peak area ratio (compound peak area/internal standard peak area) against time, the gradient of the line is determined. Subsequently, half-life and intrinsic clearance are calculated.

[2] = Liver microsomal stability, rat; format: in vitro ADME; details: pooled liver microsomes, pH 7.4; rat liver microsomes 0.5 mg/mL; 3 μM compound; read-out: Liver Microsoinal Stability t1/2, rat
Method: as §1

[3] = molecular target: T1, RSV fusion (pCDNA3.1_A2_F in HEK 293T cells) (Human respiratory syncytial virus A, UniProt P03420); assay: RSV fusion assay; format: cell-based
T1 construct: expressed in transfected cells; host or cells: HEK 293T (ECACC 12022001)
Method: HEK 293T ((ECACC 12022001) cells were cultured in T75 culture flasks in Dulbecco's medium (DMEM) containing 10% Foetal Bovine serum (FBS), 50 units per mL Penicillin and 50 μg/mL Streptomycin and warmed to 37° C. prior to use. The cells were passaged by first washing briefly with 5 mL Phosphate buffered saline (PBS), followed by addition of 2 mL of Trypsin Ethylenediaminetetraacetic acid (EDTA) to detach the cells. Once cells had detached from the flask, 8 mL media was then added to and the cells dispersed via pipetting against the bottom of the flask.
The cells were counted and diluted to 3×10^5 cells/ml in fresh media. Two T75 flasks were each seeded with 15.6 mL diluted cells, cells were also subcultured at a ratio of between 1:2 and 1:10, to continue the stock. The flasks were then incubated for 24 h at 37° C. and 5% CO2.
The plasmid DNA (for pFR-Luc and pcDNA3. 1_Gal4/NFKB) to be transfected into the HEK 293T cells was first prepared in serum free media (Opti-MEM, Invitrogen), containing the transfection reagent FuGENE® 6 (Promega). Serum free media was placed in a 1.5 mL eppendorf tube then the FuGENE 6 was added into the media. The tube was vortexed for 1 s before being incubated at RT for 5 min. 7.79 ng of both pFR_luc and pCDNA3.1_A2_F plasmid DNA were added to tube 1 and 7.79 ng of pCDNA3.1_GAL4-NF-κB plasmid to tube 2. The tubes were vortexed for 1 second and then incubated at room temperature for 15 min. Each transfection mixture was then added into the media of one of the T75 flasks of 293T cells. Cells were cultured for 24h at 37° C., 5% CO2 in a humidified incubator.
Compounds were diluted (in a polypropylene round-bottomed 96 well plate) 1:3 in a twelve point dilution curve to give top [final] of either 25 μM, 3 μM, 1 μM or 500 nM. A control compound was included in every assay at a top concentration of 3 μM. Transfected cells were counted and diluted to 4×10^5 cells/mL in fresh media. 50 μL of transfection population 1 were added to all wells of the 96 well flat bottom white opaque assay plates. 100 μL diluted compound (2 rows per compound), control compound (one row) and controls (DMSO (0% inhibition, four wells), 3 μM positive control (100% inhibition, four wells) and media (transfection population 1 only, four wells) were added to the appropriate wells. 50 μL of the diluted (4×10^5 cells/mL) population 2 cells when then added to all wells, except the four wells of transfection population 1 only where an extra 50 μL of this cells population was added.
The plates were then incubated for 24 h at 37° C. and 5% CO2. After this time, 100 μL was removed from all wells and 60 μL of ONE-Glo™ (Promega) reagent, pre-equilibrated to room temperature, was added. Plates were then incubated for 3 min at room temperature before luminescence was read, using the ONE-Glo protocol, on the GloMax Explorer System (Promega) multimode reader. Analysis was carried out in Dotmatics software. All raw data were background subtracted (subtraction of mean 3 μM positive control value), before IC50 calculation.

MDR1 = assay: in vitro; format: in vitro ADME; details: dog, MDCK-MDR1
Method: MDR1-MDCK cells obtained from the NIH (Rockville, Md., USA) are used between passage numbers 6-30. Cells are seeded onto Millipore Multiscreen Transwell plates at 3.4×10^5 cells/cm^2. The cells are cultured in DMEM and media is changed on day 3. On day 4 the permeability study is performed. Cell culture and assay incubations are carried out at 37° C. in an atmosphere of 5% CO2 with a relative humidity of 95%. On the day of the assay, the monolayers are prepared by rinsing both basolateral and apical surfaces twice with Hanks Balanced Salt Solution (HBSS) at the desired pH warmed to 37° C. Cells are then incubated with HBSS at the desired pH in both apical and basolateral compartments for 40 min to stabilise physiological parameters.
The dosing solutions are prepared by diluting test compound with assay buffer to give a final test compound concentration of 10 μM (final DMSO concentration of 1% v/v). The fluorescent integrity marker lucifer yellow is also included in the dosing solution. Analytical standards are prepared from test compound DMSO dilutions and transferred to buffer, maintaining a 1% v/v DMSO concentration.
For assessment of A-B permeability, HBSS is removed from the apical compartment and replaced with test compound dosing solution. The apical compartment insert is then placed into a companion plate containing fresh buffer (containing 1% v/v DMSO). For assessment of B-A permeability, FIBSS is removed from the companion plate and replaced with test compound dosing solution. Fresh buffer (containing 1% v/v DMSO) is added to the apical compartment insert, which is then placed into the companion plate. At 60 min the apical compartment inserts and the companion plates are separated and apical and basolateral samples diluted for analysis. Test compound permeability is assessed in duplicate. Compounds of known permeability characteristics are run as controls on each assay plate.
Test and control compounds are quantified by LC-MSMIS cassette analysis using an 8-point calibration with appropriate dilution of the samples. The starting concentration (C0) is determined from the dosing solution and the experimental recovery calculated from C0 and both apical and basolateral compartment concentrations. The integrity of the monolayer throughout the experiment is checked by monitoring lucifer yellow permeation using fluorimetric analysis. Lucifer yellow permeation is high if monolayers have been damaged.

T1 sequence (P03420 26-109): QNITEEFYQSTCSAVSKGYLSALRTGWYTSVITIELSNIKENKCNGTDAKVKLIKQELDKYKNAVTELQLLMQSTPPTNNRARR
T1 sequence (P03420 137-574): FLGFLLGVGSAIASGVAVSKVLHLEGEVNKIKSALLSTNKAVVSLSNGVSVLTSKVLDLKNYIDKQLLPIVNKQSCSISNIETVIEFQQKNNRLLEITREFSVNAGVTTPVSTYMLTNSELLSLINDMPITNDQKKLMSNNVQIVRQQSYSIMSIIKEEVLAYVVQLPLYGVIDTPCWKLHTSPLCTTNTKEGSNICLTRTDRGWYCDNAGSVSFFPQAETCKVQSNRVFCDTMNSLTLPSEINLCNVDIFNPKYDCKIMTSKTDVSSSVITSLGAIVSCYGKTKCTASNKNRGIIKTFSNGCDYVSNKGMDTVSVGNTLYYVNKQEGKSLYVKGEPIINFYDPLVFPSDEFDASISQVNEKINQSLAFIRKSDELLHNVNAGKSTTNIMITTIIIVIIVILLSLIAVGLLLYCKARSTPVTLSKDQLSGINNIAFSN

Structure (SMILES) | half-life at 3 μM [1] | half-life at 3 μM [2] | IC50 [3] | Papp A→B at 60 min, 10 μM (MDR1) | Papp B→A at 60 min, 10 μM (MDR1)
CCS(=O)(=O)N1CCC(n2c(CN3C(=O)C4(CC4)c4ccc(F)cc43)nc3cc(Cl)ccc32)CC1 [Compound 35, 1′-({5-Chloro-1-[1-(ethanesulfonyl)piperidin-4-yl]-1H-1,3-benzodiazol-2-yl}methyl)-6′-fluoro-1′,2′-dihydrospiro[cyclopropane-1,3′-indole]-2′-one] | 34.6 min | 5.5 min | 5 nM | 12.7 ×10⁻⁶ cm/s | 22.8 ×10⁻⁶ cm/s
CS(=O)(=O)N1CCC(n2c(CN3C(=O)C4(CC4)c4ccc(F)cc43)nc3cc(Cl)ccc32)CC1 [Compound 33, 1′-{[5-Chloro-1-(1-methanesulfonylpiperidin-4-yl)-1H-1,3-benzodiazol-2-yl]methyl}-6′-fluoro-1′,2′-dihydrospiro[cyclopropane-1,3′-indole]-2′-one] | 486 min | 14.8 min | 3.3 nM | 12.4 ×10⁻⁶ cm/s | 35.5 ×10⁻⁶ cm/s
